Data reported in the supplement of paper PMC10307832.

What was measured:
Assay in all cases: relative viability (nuclei count vs DMSO), 5 days (fraction); higher = more cells survive
NCI-H2347 = test system: NCI-H2347
Procedure, shortened: (§1)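 Lung cancer cell lines, seeded in 1536-well plates, were treated the following day by pin tool with a single drug or with five library-drug doses (not always all listed) in √10 steps on top of a fixed anchor-drug dose. Cells were fixed and nuclei stained in one step after 5 days, and nuclei were counted. Relative viability is the nuclei count for treated wells divided by that for vehicle wells, reported as medians of duplicate plates.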

LOU-NH91 = test system: LOU-NH91
Procedure, shortened: as §1

NCI-H2342 = test system: NCI-H2342
Procedure, shortened: as §1

HCC-15 = test system: HCC-15
Procedure, shortened: as §1

RERF-LC-KJ = test system: RERF-LC-KJ
Procedure, shortened: as §1

LXF-289 = test system: LXF-289
Procedure, shortened: as §1

SW 1573 = test system: SW 1573
Procedure, shortened: as §1

NCI-H460 = test system: NCI-H460
Procedure, shortened: as §1

A-427 = test system: A-427
Procedure, shortened: as §1

NCI-H1915 = test system: NCI-H1915
Procedure, shortened: as §1

SK-LU-1 = test system: SK-LU-1
Procedure, shortened: as §1

PC-3 [JPC-3] = test system: PC-3 [JPC-3]
Procedure, shortened: as §1

NCI-H1755 = test system: NCI-H1755
Procedure, shortened: as §1

NCI-H1734 = test system: NCI-H1734
Procedure, shortened: as §1

NCI-H2228 = test system: NCI-H2228
Procedure, shortened: as §1

NCI-H358 = test system: NCI-H358
Procedure, shortened: as §1

HOP-62 = test system: HOP-62
Procedure, shortened: as §1

NCI-H1975 = test system: NCI-H1975
Procedure, shortened: as §1

NCI-H647 = test system: NCI-H647
Procedure, shortened: as §1

HCC-78 = test system: HCC-78
Procedure, shortened: as §1

LC-2-ad = test system: LC-2-ad
Procedure, shortened: as §1

NCI-H2126 = test system: NCI-H2126
Procedure, shortened: as §1

Structure (SMILES): CC1(C)CCC(c2ccc(Cl)cc2)=C(CN2CCN(c3ccc(C(=O)NS(=O)(=O)c4ccc(N[C@H](CCN5CCOCC5)CSc5ccccc5)c(S(=O)(=O)C(F)(F)F)c4)cc3)CC2)C1 [Navitoclax] + COc1cc2c(Oc3ccc(NC(=O)C4(C(=O)Nc5ccc(F)cc5)CC4)cc3F)ccnc2cc1OCCCN1CCOCC1 [Foretinib] (partner 0.25 µM)
- relative viability (NCI-H2347; first compound 0.005 µM): 1.42
- relative viability (NCI-H2347; first compound 0.05 µM): 0.652
- relative viability (NCI-H2347; first compound 0.1581 µM): 0.665
- relative viability (NCI-H2347; first compound 0.5 µM): 0.913
- relative viability (LOU-NH91; first compound 0.005 µM): 0.955
- relative viability (LOU-NH91; first compound 0.01581 µM): 0.932
- relative viability (LOU-NH91; first compound 0.05 µM): 0.941
- relative viability (LOU-NH91; first compound 0.1581 µM): 0.911
- relative viability (LOU-NH91; first compound 0.5 µM): 0.824
- relative viability (NCI-H2342; first compound 0.005 µM): 1.19
- relative viability (NCI-H2342; first compound 0.01581 µM): 1.22
- relative viability (NCI-H2342; first compound 0.05 µM): 0.871
- relative viability (NCI-H2342; first compound 0.1581 µM): 1.1
- relative viability (NCI-H2342; first compound 0.5 µM): 1.16
- relative viability (HCC-15; first compound 0.005 µM): 1.01
- relative viability (HCC-15; first compound 0.01581 µM): 1.05
- relative viability (HCC-15; first compound 0.05 µM): 0.977
- relative viability (HCC-15; first compound 0.1581 µM): 0.982
- relative viability (HCC-15; first compound 0.5 µM): 0.918
- relative viability (RERF-LC-KJ; first compound 0.005 µM): 0.841
- relative viability (RERF-LC-KJ; first compound 0.01581 µM): 0.896
- relative viability (RERF-LC-KJ; first compound 0.05 µM): 0.844
- relative viability (RERF-LC-KJ; first compound 0.1581 µM): 0.942
- relative viability (RERF-LC-KJ; first compound 0.5 µM): 0.849
- relative viability (LXF-289; first compound 0.005 µM): 1.05
- relative viability (LXF-289; first compound 0.01581 µM): 0.981
- relative viability (LXF-289; first compound 0.05 µM): 0.924
- relative viability (LXF-289; first compound 0.1581 µM): 0.93
- relative viability (LXF-289; first compound 0.5 µM): 0.966
- relative viability (SW 1573; first compound 0.005 µM): 1.06
- relative viability (SW 1573; first compound 0.01581 µM): 1
- relative viability (SW 1573; first compound 0.05 µM): 0.922
- relative viability (SW 1573; first compound 0.1581 µM): 1.02
- relative viability (SW 1573; first compound 0.5 µM): 1.04
- relative viability (NCI-H460; first compound 0.005 µM): 0.991
- relative viability (NCI-H460; first compound 0.01581 µM): 1.02
- relative viability (NCI-H460; first compound 0.05 µM): 0.713
- relative viability (NCI-H460; first compound 0.1581 µM): 1.01
- relative viability (NCI-H460; first compound 0.5 µM): 0.941
- relative viability (A-427; first compound 0.005 µM): 0.988
- relative viability (A-427; first compound 0.01581 µM): 1.07
- relative viability (A-427; first compound 0.05 µM): 0.821
- relative viability (A-427; first compound 0.1581 µM): 1.04
- relative viability (A-427; first compound 0.5 µM): 1.1
- relative viability (NCI-H1915; first compound 0.005 µM): 1.08
- relative viability (NCI-H1915; first compound 0.01581 µM): 1.12
- relative viability (NCI-H1915; first compound 0.05 µM): 1.11
- relative viability (NCI-H1915; first compound 0.1581 µM): 1.02
- relative viability (NCI-H1915; first compound 0.5 µM): 1.07
- relative viability (SK-LU-1; first compound 0.005 µM): 0.928
- relative viability (SK-LU-1; first compound 0.01581 µM): 0.954
- relative viability (SK-LU-1; first compound 0.05 µM): 0.953
- relative viability (SK-LU-1; first compound 0.1581 µM): 0.772
- relative viability (SK-LU-1; first compound 0.5 µM): 0.741
- relative viability (PC-3 [JPC-3]; first compound 0.005 µM): 1.02
- relative viability (PC-3 [JPC-3]; first compound 0.01581 µM): 1.03
- relative viability (PC-3 [JPC-3]; first compound 0.05 µM): 1.12
- relative viability (PC-3 [JPC-3]; first compound 0.1581 µM): 1.02
- relative viability (PC-3 [JPC-3]; first compound 0.5 µM): 1.06
- relative viability (NCI-H1755; first compound 0.005 µM): 0.873
- relative viability (NCI-H1755; first compound 0.01581 µM): 1.01
- relative viability (NCI-H1755; first compound 0.05 µM): 0.735
- relative viability (NCI-H1755; first compound 0.1581 µM): 0.901
- relative viability (NCI-H1755; first compound 0.5 µM): 0.855
- relative viability (NCI-H1734; first compound 0.005 µM): 0.887
- relative viability (NCI-H1734; first compound 0.01581 µM): 0.941
- relative viability (NCI-H1734; first compound 0.1581 µM): 0.831
- relative viability (NCI-H1734; first compound 0.5 µM): 0.906
- relative viability (NCI-H2228; first compound 0.005 µM): 0.727
- relative viability (NCI-H2228; first compound 0.01581 µM): 1.04
- relative viability (NCI-H2228; first compound 0.1581 µM): 1.01
- relative viability (NCI-H2228; first compound 0.5 µM): 0.85
- relative viability (NCI-H358; first compound 0.005 µM): 0.743
- relative viability (NCI-H358; first compound 0.01581 µM): 0.946
- relative viability (NCI-H358; first compound 0.05 µM): 0.613
- relative viability (NCI-H358; first compound 0.1581 µM): 0.645
- relative viability (NCI-H358; first compound 0.5 µM): 0.728
- relative viability (HOP-62; first compound 0.005 µM): 1.07
- relative viability (HOP-62; first compound 0.01581 µM): 1.15
- relative viability (HOP-62; first compound 0.05 µM): 1.19
- relative viability (HOP-62; first compound 0.1581 µM): 1.02
- relative viability (HOP-62; first compound 0.5 µM): 1.02
- relative viability (NCI-H1975; first compound 0.005 µM): 0.887
- relative viability (NCI-H1975; first compound 0.01581 µM): 1.03
- relative viability (NCI-H1975; first compound 0.05 µM): 1.03
- relative viability (NCI-H1975; first compound 0.1581 µM): 0.914
- relative viability (NCI-H1975; first compound 0.5 µM): 1.04
- relative viability (NCI-H647; first compound 0.005 µM): 1.22
- relative viability (NCI-H647; first compound 0.01581 µM): 1.38
- relative viability (NCI-H647; first compound 0.05 µM): 1.27
- relative viability (NCI-H647; first compound 0.1581 µM): 1.24
- relative viability (NCI-H647; first compound 0.5 µM): 1.27
- relative viability (HCC-78; first compound 0.005 µM): 0.596
- relative viability (HCC-78; first compound 0.01581 µM): 0.663
- relative viability (HCC-78; first compound 0.1581 µM): 0.591
- relative viability (HCC-78; first compound 0.5 µM): 0.595
- relative viability (LC-2-ad; first compound 0.005 µM): 0.837
- relative viability (LC-2-ad; first compound 0.01581 µM): 1.29
- relative viability (LC-2-ad; first compound 0.05 µM): 1.02
- relative viability (LC-2-ad; first compound 0.1581 µM): 0.871
- relative viability (LC-2-ad; first compound 0.5 µM): 0.887
- relative viability (NCI-H2126; first compound 0.005 µM): 1.25
- relative viability (NCI-H2126; first compound 0.01581 µM): 1.17
- relative viability (NCI-H2126; first compound 0.1581 µM): 1.14
- relative viability (NCI-H2126; first compound 0.5 µM): 1.19
